According to US20250231189A1, “MEASURING FREQUENCY OF PATHOGEN-SPECIFIC T CELLS IN […] AS E[…] TCR-INDUCED CA(2+) SIGNALING” (Thomas Jefferson University, priority 2017, published 2025):
Entries after “also recorded” stand apart in the source; their conditions may differ.

Tested on: cloned T cells (68A62)
Experiment: Ca2+ mobilization pattern in individual T cells of a T-cell monolayer (Fluo-4 fluorescence microscopy)
Format: cell-based, human
Settings: for fraction of T cells with slower Ca2+ mobilization (pattern of inefficient T cells) / fraction of cells with rapid/strong and sustained pattern of Ca2+ flux: CTL clone 68A62, strong agonist peptide 10^-4 M IV9, FIG. 4
Excerpt: HIV- and Flu-specific human CD8+ T cell clones, termed 68A62 and CER43, were kindly provide by Bruce Walker and Antonio Lanzavecchia, correspondingly. These T cells recognize […] (IV9) and […] (GL9) peptides, respectively, both presented by HLA-A2 MHC class I. 115iX is a CD8+ T cell line developed from CTL D3 as a result of spontaneous mutation in its TCR β chain resulting in loss of specificity for its natural ligand (Anikeeva and Sykulev, unpublished). These were used as T cells with irrelevant specificity. After stimulation with a mixture of allogeneic PBMC and IL2 the cells are typically used in resting stage, 12-17 days after the stimulation as previously described.
10^6 cells in 1 ml of PBS were loaded with Fluo-4 (Life Technologies) at 2-4 μM for 30 min at 37° C. in the presence of 0.02% pluoronic acid F-127 and 4 mM Probenecid. The cells were washed free of unreacted reagents and incubated at 37° C. for additional 30 min. The cells were then re-suspended in the assay buffer (Dulbecco's PBS containing 1 mM CaCl2, 2 mM MgCl2, 5 mM glucose, and 0.025% BSA) and used for Ca2+ flux analysis.
Glass bottom of 96 well MatTec plates was covered with poly-L-Lysine (Sigma, mol wt>300,000) at 0.1 mg/ml for 1 hr at room temperature. After washing with DPBS and add water, TS2/4 non-blocking mAb specific for LFA-1 were added to the plate at concentration 10 μg/ml overnight & 4° C. The wells were washed with DPBS, and 3×10^5 Fluo-4-labeled T cells in 100 μl of the assay buffer were added to each well. The plates were centrifuged for 200 g for one minute and were incubated for 30 min at room temperature prior to the imaging. Suspended cells were removed by gentle washing with assay buffer. The quality of T cell monolayer was assessed using bright field microscopy.
To identify responding T cells we imaged T-cell monolayers before (background measurement) and after (response) addition of the stimulatory signal such as agonist peptide. The images of T-cell monolayers were taken at various exposure times using 10× or 20× objectives. Instead of averaging the entire set of stimulatory signal against an agonist peptide, we identified sets of cells, having different response rates and then averaged these, now separated sets of cells. This is in direct contrast to the general averaging strategy provided in PCT/US2016/039313. In some experiments Ca2+ response was also initiated by ionomycin at 10 μg/ml to optimize exposure time (data not shown). The average intensity of images prior and after the T-cell stimulation at various time points and the numbers of individual responding cells per imaging field were determined by MetaMorph software.
Glass bottom of 96-well plates was covered with poly-L-Lysine to capture TS2/4 antibody recognizing LFA-1 adhesion receptor without blocking LFA-1 functional activity. Cloned CD8 T cells with known specificity or polyclonal CD8 T cells were labeled with Ca2+ fluorophore Fluor-4 and added to the wells. The quality of the T-cell monolayers was evident from analysis of bright field images of the immobilized T cells on the glass bottom of the plate. This method allows T cells to form a continuous monolayer allowing the T cells to contact each other, which is necessary for presentation and recognition of pMHC on one T cell by another T cell.
The immobilized cells, after they are provided with stimulation of a peptide, can be imaged. Accordingly, we can take a first image, to identify the background image of each individual cell, before and after the stimulation. Accordingly, we can look at the calcium concentration of each individual cell across time. By looking at each cell, we can then determine and add them to one of three boxes for responding cells, and then a fourth type of cell that is either non-responsive or there is calcium flux that happens with or without stimulation-this typically results in a sharp peak of intensity that quickly diminishes.

[1] = listed as strong agonist ligand

ILKEPVHGV [IV9, peptide from HIV reverse transcriptase, presented by HLA-A2, recognized by CTL clone 68A62]
pattern of Ca2+ response of majority of T cells (CD8 CTL 68A62, 10^-4 M IV9 peptide, FIG. 4): rapid and sustaine
fraction of T cells with slower Ca2+ mobilization (pattern of inefficient T cells): 20%
fraction of cells with rapid/strong and sustained pattern of Ca2+ flux: about 90%
fraction of T cells with slower Ca2+ mobilization (pattern of inefficient T cells) [1]: less than 20%
fraction of cells with rapid/strong and sustained pattern of Ca2+ flux [1]: More than 80%
pattern of Ca2+ response of majority of T cells (CTL clone 68A62, suboptimal (much lower) concentration of the strong agonist peptide, FIG. 6): rapid and oscillating pattern of Ca2+ mobilization; also recorded: quick, but oscillating
pattern of Ca2+ response of majority of T cells (CTL clone 68A62, suboptimal (much lower) concentration of the strong agonist peptide, FIG. 6, listed as strong agonist pMHC ligand): slow oscillating kinetics of Ca2+ mobilization
